The record followed here is patent publication US20210238176A1, “PESTICIDALLY-ACTIVE BICYCLIC HETEROAROMATIC COMPOUNDS” (SYNGENTA CROP PROTECTION AG, priority 2018, published 2021).

Common to all, as to type: in vivo
Assay [1] has as its system Myzus persicae (Green Peach Aphid). The experiment in a line: Myzus persicae (green peach aphid) feeding/contact activity, sunflower leaf discs. The conditions noted are these: foliar, 144 h, application rate 200 ppm, aphid population of mixed ages, 6 days after infestation. Here is the method: Myzus persicae (Green Peach Aphid): Feeding/Contact Activity
Sunflower leaf discs were placed onto agar in a 24-well microtiter plate and sprayed with aqueous test solutions prepared from 10,000 ppm DMSO stock solutions. After drying, the leaf discs were infested with an aphid population of mixed ages. The samples were assessed for mortality 6 days after infestation.

Assay [2] has the same test system. The experiment in a line: Myzus persicae intrinsic activity, sucrose solution under Parafilm. As to conditions: 120 h, test rate 12 ppm, 5 days after infestation. An excerpt:
Myzus persicae (Green Peach Aphid). Intrinsic Activity
Test compounds prepared from 10,000 ppm DMSO stock solutions were applied by pipette into 24-well microtiter plates and mixed with sucrose solution. The plates were closed with a stretched Parafilm. A plastic stencil with 24 holes was placed onto the plate and infested pea seedlings were placed directly on the Parafilm. The infested plate was closed with a gel blotting paper and another plastic stencil and then turned upside down. The samples were assessed for mortality 5 days after infestation.

The test system is the same in assay [3]. The experiment in a line: Myzus persicae systemic activity, pea seedling roots in test solution. As to conditions: 144 h, test rate 24 ppm, systemic via pea seedling roots, 6 days. Here is the method: Myzus persicae (Green Peach Aphid). Systemic Activity
Roots of pea seedlings infested with an aphid population of mixed ages were placed directly into aqueous test solutions prepared from 10,000 ppm DMSO stock solutions. The samples were assessed for mortality 6 days after placing seedlings into test solutions.

A value given as a limit tells only on which side of the number the result lay.

In general, mortality refers to the percentage killed. The low end stands for more survivors, the high end for fewer survivors. Turning to `N#Cc1ccc(-n2c3cccn(Cc4ccc(Cl)nc4)c-3nc2=O)cc1` [Compound A10, 4-[4-[(6-chloro-3-pyridyl)methyl]-2-oxo-imidazo[4,5-b]pyridin-1-yl]benzonitrile], the mortality at 200 ppm in assay [1] is not below 80%. The same compound registered a mortality at 12 ppm in assay [2] not below 80%. For `O=c1nc2n(Cc3ccc(Cl)nc3)cccc-2n1-c1nccnc1C(F)(F)F` [Compound A42, 4-[(6-chloro-3-pyridyl)methyl]-1-[3-(trifluoromethyl)pyrazin-2-yl]imidazo[4,5-b]pyridin-2-one], the mortality at 200 ppm in assay [1] was not below 80%. Moreover, in assay [2], the mortality at 12 ppm is not below 80%. `O=c1nc2n(Cc3ccc(Cl)nc3)cccc-2n1-c1ncccn1` [Compound A23, 4-[(6-chloro-3-pyridyl)methyl]-1-pyrimidin-2-yl-imidazo[4,5-b]pyridin-2-one] came in with a mortality at 200 ppm in assay [1] not below 80%.

For `O=c1nc2n(Cc3ccc(Cl)nc3)cccc-2n1-c1ccc(Cl)cc1` [Compound A9, 1-(4-chlorophenyl)-4-[(6-chloro-3-pyridyl)methyl]imidazo[4,5-b]pyridin-2-one], the mortality at 200 ppm in assay [1] was not below 80%. This compound had a mortality at 12 ppm in assay [2] not below 80%. On to `O=c1nc2n(Cc3ccc(Cl)nc3)cccc-2n1-c1nnc(C2CC2)o1` [Compound A79, 4-[(6-chloro-3-pyridyl)methyl]-1-(5-cyclopropyl-1,3,4-oxadiazol-2-yl)imidazo[4,5-b]pyridin-2-one], for which the mortality at 200 ppm in assay [1] was not below 80%. The compound also came in with a mortality at 12 ppm in assay [2] not below 80%. `O=c1nc2n(Cc3ccc(Cl)nc3)cccc-2n1-c1ccnc(C(F)(F)F)c1` [Compound A14, 4-[(6-chloro-3-pyridyl)methyl]-1-[2-(trifluoromethyl)-4-pyridyl]imidazo[4,5-b]pyridin-2-one] gave a mortality at 200 ppm in assay [1] not below 80%. The compound further had a mortality at 12 ppm in assay [2] not below 80%. Turning to `Cc1ccc(-n2c3cccn(Cc4ccc(Cl)nc4)c-3nc2=O)s1` [Compound A67, 4-[(6-chloro-3-pyridyl)methyl]-1-(5-methyl-2-thienyl)imidazo[4,5-b]pyridin-2-one], in assay [1], the mortality at 200 ppm is not below 80%. Besides, the mortality at 12 ppm in assay [2] was not below 80%. As for `O=c1nc2n(Cc3ccc(Cl)nc3)cccc-2n1-c1cncc(Cl)c1` [Compound A22, 1-(5-chloro-3-pyridyl)-4-[(6-chloro-3-pyridyl)methyl]imidazo[4,5-b]pyridin-2-one], in assay [2], the mortality at 12 ppm was not below 80%. In assay [3], this compound showed a mortality at 24 ppm not below 80%. Regarding `O=c1nc2n(Cc3ccc(Cl)nc3)cccc-2n1-c1ccc(C(F)(F)F)nc1` [Compound A24, 4-[(6-chloro-3-pyridyl)methyl]-1-[6-(trifluoromethyl)-3-pyridyl]imidazo[4,5-b]pyridin-2-one], the mortality at 12 ppm in assay [2] was not below 80%. For the same compound, the mortality at 24 ppm in assay [3] was not below 80%. As to `O=c1nc2n(Cc3ccc(Cl)nc3)cccc-2n1-c1ccc(Cl)cc1Cl` [Compound A41, 4-[(6-chloro-3-pyridyl)methyl]-1-(2,4-dichlorophenyl)imidazo[4,5-b]pyridin-2-one], the mortality at 12 ppm in assay [2] is not below 80%. Turning to `O=c1nc2n(Cc3ccc(Cl)nc3)cccc-2n1-c1ccccc1Cl` [Compound A38, 1-(2-chlorophenyl)-4-[(6-chloro-3-pyridyl)methyl]imidazo[4,5-b]pyridin-2-one], in assay [1], the mortality at 200 ppm was not below 80%. Moreover, the mortality at 12 ppm in assay [2] was not below 80%. For the compound `O=c1nc2n(Cc3ccc(Cl)nc3)cccc-2n1-c1ccccn1` [Compound A27, 4-[(6-chloro-3-pyridyl)methyl]-1-(2-pyridyl)imidazo[4,5-b]pyridin-2-one], in assay [2], the mortality at 12 ppm is not below 80%. Further, the mortality at 24 ppm in assay [3] was not below 80%.

Consider `O=c1nc2n(Cc3ccc(Cl)nc3)cccc-2n1-c1cncnc1` [Compound A16, 4-[(6-chloro-3-pyridyl)methyl]-1-pyrimidin-5-yl-imidazo[4,5-b]pyridin-2-one], for which the mortality at 12 ppm in assay [2] is not below 80%. In assay [3], this compound registered a mortality at 24 ppm not below 80%. `O=c1nc2n(Cc3cnc(Cl)s3)cccc-2n1-c1ccccc1` [Compound A36, 4-[(2-chlorothiazol-5-yl)methyl]-1-phenyl-imidazo[4,5-b]pyridin-2-one] yielded a mortality at 200 ppm in assay [1] not below 80%. The same compound returned a mortality at 12 ppm in assay [2] not below 80%. In turn, `N#Cc1cccc(-n2c3cccn(Cc4ccc(Cl)nc4)c-3nc2=O)c1` [Compound A11, 3-[4-[(6-chloro-3-pyridyl)methyl]-2-oxo-imidazo[4,5-b]pyridin-1-yl]benzonitrile] registered a mortality at 200 ppm in assay [1] not below 80%. Moreover, in assay [2], the mortality at 12 ppm is not below 80%. `O=c1nc2n(Cc3ccc(Cl)nc3)cccc-2n1-c1cnn(-c2ccccc2)c1` [Compound A5, 4-[(6-chloro-3-pyridyl)methyl]-1-(1-phenylpyrazol-4-yl)imidazo[4,5-b]pyridin-2-one] had a mortality at 200 ppm in assay [1] not below 80%. In assay [2], the mortality at 12 ppm is not below 80%.

With `O=c1nc2n(Cc3ccc(Cl)nc3)cccc-2n1-c1cc(C(F)F)ccn1` [Compound A19, 4-[(6-chloro-3-pyridyl)methyl]-1-[4-(difluoromethyl)-2-pyridyl]imidazo[4,5-b]pyridin-2-one], the mortality at 12 ppm in assay [2] is not below 80%. For the compound `CCn1nccc1-n1c2cccn(Cc3ccc(Cl)nc3)c-2nc1=O` [Compound A89, 4-[(6-chloro-3-pyridyl)methyl]-1-(2-ethylpyrazol-3-yl)imidazo[4,5-b]pyridin-2-one], in assay [2], the mortality at 12 ppm is not below 80%. On to `Cc1cccc(-n2c3cccn(Cc4ccc(Cl)nc4)c-3nc2=O)c1` [Compound A29, 4-[(6-chloro-3-pyridyl)methyl]-1-(m-tolyl)imidazo[4,5-b]pyridin-2-one], for which the mortality at 200 ppm in assay [1] is not below 80%. This compound returned a mortality at 12 ppm in assay [2] not below 80%. In assay [1], `O=c1nc2n(Cc3ccc(Cl)nc3)cccc-2n1-c1ccccc1C(F)(F)F` [Compound A81, 4-[(6-chloro-3-pyridyl)methyl]-1-[2-(trifluoromethyl)phenyl]imidazo[4,5-b]pyridin-2-one] came in with a mortality at 200 ppm not below 80%. In assay [2], the mortality at 12 ppm is not below 80%.

As for `O=c1nc2n(Cc3ccc(Cl)nc3)cccc-2n1-c1cnn(C2COC2)c1` [Compound A87, 4-[(6-chloro-3-pyridyl)methyl]-1-[1-(oxetan-3-yl)pyrazol-4-yl]imidazo[4,5-b]pyridin-2-one], in assay [1], the mortality at 200 ppm is not below 80%. As for `O=c1nc2n(Cc3ccc(Cl)nc3)cccc-2n1-c1cccc(Cl)c1` [Compound A6, 1-(3-chlorophenyl)-4-[(6-chloro-3-pyridyl)methyl]imidazo[4,5-b]pyridin-2-one], the mortality at 200 ppm in assay [1] is not below 80%. The compound further displayed a mortality at 12 ppm in assay [2] not below 80%.

For the compound `O=c1nc2n(Cc3ccc(Cl)nc3)cccc-2n1-c1ccsc1` [Compound A47, 4-[(6-chloro-3-pyridyl)methyl]-1-(3-thienyl)imidazo[4,5-b]pyridin-2-one], the mortality at 12 ppm in assay [2] is not below 80%.

`O=c1nc2n(Cc3ccc(Cl)nc3)cccc-2n1-c1cc(F)cs1` [Compound A73, 4-[(6-chloro-3-pyridyl)methyl]-1-(4-fluoro-2-thienyl)imidazo[4,5-b]pyridin-2-one]: the mortality at 12 ppm in assay [2] was not below 80%. The compound `COC(=O)c1ccc(-n2c3cccn(Cc4ccc(Cl)nc4)c-3nc2=O)o1` [Compound A77, methyl 5-[4-[(6-chloro-3-pyridyl)methyl]-2-oxo-imidazo[4,5-b]pyridin-1-yl]furan-2-carboxylate] had a mortality at 12 ppm in assay [2] not below 80%.

`COc1cccc(-n2c3cccn(Cc4ccc(Cl)nc4)c-3nc2=O)c1` [Compound A7, 4-[(6-chloro-3-pyridyl)methyl]-1-(3-methoxyphenyl)imidazo[4,5-b]pyridin-2-one]: the mortality at 200 ppm in assay [1] is not below 80%. Besides, the mortality at 12 ppm in assay [2] was not below 80%.

`O=c1nc2n(Cc3ccc(Cl)nc3)cccc-2n1-c1csc(C(F)(F)F)c1` [Compound A71, 4-[(6-chloro-3-pyridyl)methyl]-1-[5-(trifluoromethyl)-3-thienyl]imidazo[4,5-b]pyridin-2-one] came in with a mortality at 12 ppm in assay [2] not below 80%. On the same count and under the same terms, the result for `O=c1nc2n(Cc3ccc(Cl)nc3)cccc-2n1-c1csc(C(F)F)c1` [Compound A68, 4-[(6-chloro-3-pyridyl)methyl]-1-[5-(difluoromethyl)-3-thienyl]imidazo[4,5-b]pyridin-2-one] reads not below 80%.

In turn, `O=c1nc2n(Cc3ccc(Cl)nc3)cccc-2n1-c1cccc(C(F)(F)F)c1` [Compound A21, 4-[(6-chloro-3-pyridyl)methyl]-1-[3-(trifluoromethyl)phenyl]imidazo[4,5-b]pyridin-2-one] registered a mortality at 200 ppm in assay [1] not below 80%. The mortality at 12 ppm in assay [2] is not below 80%.

In assay [1], `COc1ccc(-n2c3cccn(Cc4ccc(Cl)nc4)c-3nc2=O)cc1` [Compound A8, 4-[(6-chloro-3-pyridyl)methyl]-1-(4-methoxyphenyl)imidazo[4,5-b]pyridin-2-one] yielded a mortality at 200 ppm not below 80%. In assay [2], this compound showed a mortality at 12 ppm not below 80%. Compound `Cc1ccc(C)c(-n2c3cccn(Cc4ccc(Cl)nc4)c-3nc2=O)c1` [Compound A51, 4-[(6-chloro-3-pyridyl)methyl]-1-(2,5-dimethylphenyl)imidazo[4,5-b]pyridin-2-one] displayed a mortality at 12 ppm in assay [2] not below 80%.

`O=c1nc2n(Cc3ccc(Cl)nc3)cccc-2n1-c1cccc(-c2ccccc2)c1` [Compound A1, 4-[(6-chloro-3-pyridyl)methyl]-1-(3-phenylphenyl)imidazo[4,5-b]pyridin-2-one] gave a mortality at 200 ppm in assay [1] not below 80%. The same compound had a mortality at 12 ppm in assay [2] not below 80%.
